Measurements from patent publication US11542508B2, “Isolated polynucleotides and polypeptides and methods of using same for expressing an expression product of interest” (priority 2016, dated 2023).

Key:
spBeta = experiment: Growth dynamics of phage-infected cultures (spBeta infection of B. subtilis BEST7003); type: cell-based; settings: B. subtilis BEST7003 infected by spBeta at MOI=0.1, LB supplemented with synthesized peptide
Procedure: Overnight cultures of bacteria were diluted 1:100 in LB media and incubated at 37° C. with shaking until reaching O.D 600 nm=0.1. The bacterial culture was centrifuged at 4000 rpm for 10 minutes at room temperature. The supernatant was discarded and the pellet was resuspended in LB medium supplemented with 0.1 mM MnCl2 and 5 mM MgCl2 at 10% of the initial volume. The concentrated bacterial culture was added to conditioned medium or medium supplemented with synthesized arbitrium peptide in a ratio of 1:9 (bacteria to medium) and incubated for 1 hour at room temperature. Following, the culture was infected with phages at MOI=0.1. Optical density measurements at a wavelength of 600 nm were taken using a TECAN Infinite 200 plate reader in a 96-wells plate.

phi3T = experiment: Sequencing-based assay for lysogeny; type: cell-based, B. subtilis 168; settings: 60 minutes post infection, phi3T MOI=2, peptide 1 μM; 18% (±3.3%) without peptide
Procedure: An overnight culture of bacteria was diluted 1/100 until reaching O.D 600 nm=0.1. Medium was replaced as described above [LB supplemented with 0.1 mM MnCl2 and 5 mM MgCl2 with or without SAIRGA (SEQ ID NO: 269)], and incubated for 1 hour at room temperature. Bacteria were infected by phi3T at multiplicity of infection (MOI)=2. Cell pellets were collected at 5, 10, 20 and 60 minutes post infection in the presence or absence of SAIRGA (SEQ ID NO: 269) peptide at 1 μM final concentration in the medium. DNA was extracted using QIAGEN DNeasy blood and tissue kit (CAT #69504) and subjected to Illumina-based whole genome sequencing on NextSeq500. The relative abundance of lysogens in each sample was estimated using the number of reads mapped to the uninterrupted integration site versus reads mapped to the integration junction spanning the prophage DNA on one end and the bacterial DNA on the other end.

aimX = experiment: RNA-seq / differential expression analysis during phi3T infection; type: cell-based; settings: medium supplemented by 1 μM peptide
Procedure: To determine the difference in gene expression with and without the peptide, bacteria were incubated for 1 hour in LB medium supplemented with 0.1 mM MnCl2 and 5 mM MgCl2 in the presence or absence of 1 μM synthesized SAIRGA (SEQ ID NO: 269) peptide. Following, the bacteria were infected with phi3T (MOI=0.1); and cell pellets were collected at 0, 5, 10 and 20 minutes post infection.
RNA extraction and RNA-seq was performed as described in Dar et al.^33. Briefly, pellets were lysed using the Fastprep homogenizer (MP Biomedicals, Santa Ana, Calif.) and RNA was extracted with the FastRNA PRO blue kit (MP Biomedicals, 116025050) according to manufacturer's instructions. […]
RNA-seq libraries were sequenced using the Illumina NextSeq500 platform. Sequenced reads were demultiplexed and adapters were trimmed using fastx_clipper with default parameters. Reads were mapped to the reference genomes (gene annotation and sequences were downloaded from Genbank: NC_000964 for Bacillus subtilis str. 168, AP012496 for Bacillus subtilis BEST7003) using NovoAlign (Novocraft) V3.02.02 with default parameters. […]
Reads per gene were calculated for each biological replicate at 20 minutes post infection with and without the synthetic peptide and normalized relative to the total mapped reads hitting the phage genome in each replicate. […]

[1] = system: Bacillus subtilis BEST7003 containing Construct #1; experiment: GFP reporter expression, Construct #1; type: cell-based; settings: Construct #1, peptide 62.5 nM-1000 nM in LB
Procedure: (§1) Starter growths of wild type (WT) Bacillus subtilis BEST7003 strain and of Bacillus subtilis BEST7003 strains containing Construct #1 or Construct #2 were cultured in 3 ml Luria-Bertani (LB) broth until the growth curve indicated stationary phase. Following, the bacterial cells were diluted in a ratio of 1/100 in LB broth or LB broth supplemented with a SAIRGA (SEQ ID NO: 269) peptide at a concentration range of 62.5 nM-1000 nM. Optical density (O.D. at 600 nm) and GFP fluorescence levels (488 nm excitation/518 nm emission) were measured over time in a 96 wells plate using a TECAN Infinite 200 plate reader.

[2] = system: Bacillus subtilis BEST7003 containing Construct #2; experiment: GFP reporter expression, Construct #2; type: cell-based; settings: Construct #2, peptide 62.5 nM-1000 nM in LB
Procedure: as §1

AimR = AimR (Bacillus phage phi3T, UniProt P0DOE3); experiment: Analytical gel filtration of purified AimR (oligomeric state); set-up: made in house; host or cells: E. coli BL21(DE3), pET28a; settings: AimR:SAIRGA 1:2, AimR:GMPRGA 1:1 molar ratio
Procedure: Following, AimR was expressed in E. coli BL21(DE3) cells with a C-terminal 6× His-tag. Expression was performed at 15° C. for about ˜18 hours using 200 μM IPTG (Isopropyl β-D-1-thiogalactopyranoside) as an inducer. The cells pellet was resuspended in lysis buffer [50 mM Tris pH 8, 0.3M NaCl, 20 mM Imidazole, 2 mM DTT, 0.2 mg/ml Lysozyme, 1 μg/ml DNAse, protease inhibitor cocktail (Calbiochem)], disrupted by a cell disrupter at 4° C. and clarified at 15,000 g for 30 minutes. The clarified lysate was loaded onto a HisTrap_FF_5 ml column (GE Healthcare) and washed with buffer containing 50 mM Tris pH 8, 0.3 M NaCl, 20 mM imidazole and 2 mM DTT. AimR was eluted from the column in one step with the same buffer containing 0.5 M imidazole. Fractions containing AimR were pooled and injected to a size exclusion column (HiLoad_16/60_Superdex_200_prepgrade,GE_Healthcare) equilibrated with 20 mM Tris pH 8, 0.3 M NaCl, 2 mM TCEP. Fractions containing pure AimR were pooled and flash frozen in aliquots using liquid nitrogen.
Pure AimR was injected to an analytical gel filtration column (Superdex_200_Increase_10/30 GL, GE Healthcare) equilibrated with buffer containing 20 mM Tris pH 8, 0.3 M NaCl, 2 mM TCEP. […]

Sequence of AimR (P0DOE3 whole entry): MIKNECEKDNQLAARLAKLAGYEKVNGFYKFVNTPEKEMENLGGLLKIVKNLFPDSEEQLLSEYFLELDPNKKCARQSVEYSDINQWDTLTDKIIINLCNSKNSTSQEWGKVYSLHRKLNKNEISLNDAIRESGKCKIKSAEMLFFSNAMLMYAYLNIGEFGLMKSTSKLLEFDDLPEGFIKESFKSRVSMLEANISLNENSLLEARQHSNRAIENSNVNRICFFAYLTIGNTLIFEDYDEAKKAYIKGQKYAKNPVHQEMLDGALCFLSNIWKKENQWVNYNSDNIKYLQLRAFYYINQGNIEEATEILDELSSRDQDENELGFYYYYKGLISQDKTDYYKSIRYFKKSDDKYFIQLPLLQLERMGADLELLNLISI

CC[C@H](C)[C@H](NC(=O)[C@H](C)NC(=O)[C@@H](N)CO)C(=O)N[C@@H](CCCNC(=N)N)C(=O)NCC(=O)N[C@@H](C)C(=O)O [SAIRGA, Ser-Ala-Ile-Arg-Gly-Ala]
effect on lysogeny / infection dynamics of spBeta (spBeta): had no effect on the infection dynamics of spBeta | bacteria lysogenized (phi3T): 48% (±7.9%) | reduction of aimX expression (aimX): more than 20 fold | GFP fluorescence in presence of peptide [1]: fluorescence gradually repressed in a manner proportional to the concentration of the peptide | GFP expression in presence of peptide [2]: differential expression of GFP dependent on the concentration of the peptide | AimR oligomeric state (migration in gel filtration column) (AimR): strictly migrated as a monomer
